The structures appear in SMILES notation.

The target of this assay is T1, Human HPK1, catalytic domain (Homo sapiens, UniProt Q92918).
T1 sequence (Q92918 1-346): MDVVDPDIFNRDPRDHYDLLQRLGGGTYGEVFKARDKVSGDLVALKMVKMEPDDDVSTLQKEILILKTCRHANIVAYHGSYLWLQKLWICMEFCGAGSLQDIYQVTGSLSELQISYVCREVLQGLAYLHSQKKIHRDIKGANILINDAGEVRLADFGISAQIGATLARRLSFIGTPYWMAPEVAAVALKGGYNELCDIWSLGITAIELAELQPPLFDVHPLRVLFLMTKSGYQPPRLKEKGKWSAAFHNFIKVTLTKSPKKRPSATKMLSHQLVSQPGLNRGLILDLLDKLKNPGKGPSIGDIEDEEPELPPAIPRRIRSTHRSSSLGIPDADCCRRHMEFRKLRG
Briefly: HPK1-SLP76 TR-FRET Assay. As to conditions: 75 pM HPK1, ATP 10 uM, SLP76 10 nM, 30 min pre-incubation, 60 min reaction. The class given is biochemical. (In TR-FRET formats the signal depends on donor and acceptor labels being close together.)
As usually defined, the IC50 is the point on the concentration scale where inhibition reaches its midpoint. `CNC(=O)CNc1ccc2cnc(Nc3cc4c(cc3OC)CCN(C)C4)nc2c1` [Compound 3-70, N~2~-{2-[(6-methoxy-2-methyl-1,2,3,4-tetrahydroisoquinolin-7-yl)amino]quinazolin-7-yl}-N-methylglycinamide] had an IC50 of 0.393 µM. `COc1cc2c(cc1Nc1ncc3ccc(NCC(=O)N(C)C)cc3n1)CN(C)CC2` [Compound 3-71, N~2~-{2-[(6-methoxy-2-meth-yl-1,2,3,4-tetrahydroisoquinolin-7-yl)amino]quinazolin-7-yl}-N,N-dimethylglycinamide] came in with an IC50 of 0.0917 µM. For `COc1cc2c(cc1Nc1ncc3ccc(NCc4cc(C)n(C)n4)cc3n1)CN(C)CC2` [Compound 3-72, N~7~-[(1,5-dimethyl-1H-pyrazol-3-yl)methyl]-N~2~-(6-methoxy-2-methyl-1,2,3,4-tetra-hydroisoquinolin-7-yl)quinaz-oline-2,7-diamine] the value was 0.289 µM; for `COc1cc2c(cc1Nc1ncc3ccc(N4CCN(C5CC5)C(=O)C4)cc3n1)CN(C)CC2` [Compound 3-73, 1-cyclopropyl-4-{2-[(6-methoxy-2-methyl-1,2,3,4-tetrahydroiso-quinolin-7-yl)amino]quinazolin-7-yl}piperazin-2-one], 0.719 µM; for `COc1cc2c(cc1Nc1ncc3ccc(NC4C5COCC54)cc3n1)CN(C)CC2` (stereo not drawn) [Compound 3-74, N~2~-(6-methoxy-2-methyl-1,2,3,4-tetrahydroisoquinolin-7-yl)-N~7~-(3-oxabicyclo[3.1.0]-hexan-6-yl)quinazoline-2,7-diamine], 0.138 µM. `C[C@H]1COC(=O)N1c1cc(N)c2cnc(Nc3ccc(S(C)(=O)=O)cc3)nc2c1` [Compound 3-76, (S)-3-(5-amino-2-((4-(methyl-sulfonyl)phenyl)amino)quinaz-olin-7-yl)-4-methyloxazolidin-2-one] yielded an IC50 of 0.000101 µM. `C[C@@H]1COC(=O)N1c1cc(N)c2cnc(Nc3ccc(S(C)(=O)=O)cc3)nc2c1` [Compound 3-77, (R)-3-(5-amino-2-((4-(methyl-sulfonyl)phenyl)amino)quinaz-olin-7-yl)-4-methyloxazolidin-2-one] gave an IC50 of 0.0243 µM. On to `C[C@H]1COC(=O)N1c1cc(N)c2cnc(Nc3ccc(CS(C)(=O)=O)cc3)nc2c1` [Compound 3-78, (S)-3-(5-amino-2-((4-((methyl-sulfonyl)methyl)phenyl)amino)-quinazolin-7-yl)-4-methyloxa-zolidin-2-one], for which 0.000169 µM corresponded to half-maximal inhibition (IC50). `CNC(=O)c1ccc(Nc2ncc3c(N)cc(N4C(=O)OC[C@@H]4C)cc3n2)cc1` [Compound 3-79]: 0.000255 µM corresponded to half-maximal inhibition (IC50). `COc1cc2c(cc1Nc1ncc3c(N)c(F)c(Nc4cc(CO)ccn4)cc3n1)CN(C)CC2` [Compound 3-80, [2-({5-amino-6-fluoro-2-[(6-methoxy-2-methyl-1,2,3,4-tetra-hydroisoquinolin-7-yl)amino]-quinazolin-7-yl}amino)pyridin-4-yl]methanol] returned a half-maximal inhibitory concentration (IC50) of 0.00281 µM. For `COc1cc2c(cc1Nc1ncc3ccc(OCc4ccc(N5CCNCC5)nc4)cc3n1)CN(C)CC2` [Compound 4-1, N-(6-methoxy-2-methyl-1,2,3,4-tetrahydroisoquin-olin-7-yl)-7-{[6-(piperazin-1-yl)pyridin-3-yl]methoxy}-quinazolin-2-amine] the value was 0.0152 µM; for `COc1cc2c(cc1Nc1ncc3ccc(OCc4ccc5c(c4)CNC5)cc3n1)CN(C)CC2` [Compound 4-2, 7-[(2,3-dihydro-1H-iso-indol-5-yl)methoxy]-N-(6-methoxy-2-methyl-1,2,3,4-tetrahydroisoquinolin-7-yl)-quinazolin-2-amine], 0.00467 µM; for `COc1cc2c(cc1Nc1ncc3ccc(OCC4CCNCC4)cc3n1)CN(C)CC2` [Compound 4-3, N-(6-methoxy-2-methyl-1,2,3,4-tetrahydroisoquin-olin-7-yl)-7-[(piperidin-4-yl)methoxy]quinazolin-2-amine], 0.377 µM.

In the case of `COc1cc2c(cc1Nc1ncc3ccc(OCC4CCN(c5cncc(C)n5)CC4)cc3n1)CN(C)CC2` [Compound 4-4, N-(6-methoxy-2-methyl-1,2,3,4-tetrahydroisoquin-olin-7-yl)-7-{[1-(6-methyl-pyrazin-2-yl)piperidin-4-yl]methoxy}quinazolin-2-amine], the IC50 stood at 0.158 µM. With `COc1cc2c(cc1Nc1ncc3ccc(Oc4cn[nH]c4)cc3n1)CN(C)CC2` [Compound 4-5, N-(6-methoxy-2-methyl-1,2,3,4-tetrahydroisoquin-olin-7-yl)-7-[(1H-pyrazol-4-yl)oxy]quinazolin-2-amine] the figure was 0.258 µM. `COc1cc2c(cc1Nc1ncc3ccc(Oc4ccc(C(=O)N5CCN(C)CC5)cc4)cc3n1)CN(C)CC2` [Compound 4-6, [4-({2-[(6-methoxy-2-methyl-1,2,3,4-tetrahydro-isoquinolin-7-yl)amino]-quinazolin-7-yl}oxy)phen-yl](4-methylpiperazin-1-yl)methanone] displayed a half-maximal inhibitory concentration (IC50) of 0.583 µM. As to `COc1cc2c(cc1Nc1ncc3ccc(Oc4ccc(N5CCN(C(C)=O)CC5)cc4)cc3n1)CN(C)CC2` [Compound 4-7, 1-{4-[4-({2-[(6-methoxy-2-methyl-1,2,3,4-tetrahydro-isoquinolin-7-yl)amino]-quinazolin-7-yl}oxy)phen-yl]piperazin-1-yl}ethan-1-one], the IC50 came to 0.224 µM. For the compound `COc1cc2c(cc1Nc1ncc3ccc(Oc4ccc([C@H](C)N)cc4)cc3n1)CN(C)CC2` [Compound 4-8, 7-{4-[(1S)-1-aminoethyl]-phenoxy}-N-(6-methoxy-2-methyl-1,2,3,4-tetrahydro-isoquinolin-7-yl)quinazolin-2-amine], the 50% inhibitory concentration (IC50) came out at 0.00237 µM. With `COc1cc2c(cc1Nc1ncc3c(N)cc(Oc4ccc5c(c4)CCNC5)cc3n1)CN(C)CC2` [Compound 4-9, N2-(6-Methoxy-2-methyl-1,2,3,4-tetrahydroisoquinolin-7-yl)-7-((1,2,3,4-tetrahydroisoquinolin-6-yl)oxy)quinazoline-2,5-diamine] the figure was 0.00219 µM; with `COc1cc2c(cc1Nc1ncc3ccc([C@H]4CC[C@H](N)CC4)cc3n1)CN(C)CC2` [Compound 5-1, 7-((1r,4r)-4-aminocyclohexyl)-N-(6-methoxy-2-methyl-1,2,3,4-tetrahydroisoquinolin-7-yl)quinazolin-2-amine], 0.662 µM; with `COc1cc2c(cc1Nc1ncc3ccc([C@H]4CC[C@H](CN)CC4)cc3n1)CN(C)CC2` [Compound 5-2, 7-((1r,4r)-4-(aminomethyl)-cyclohexyl)-N-(6-methoxy-2-methyl-1,2,3,4-tetrahydroiso-quinolin-7-yl)quinazolin-2-amine], 0.165 µM.

For the origin of these results see patent US20230399341A1, “7-PHENYL SUBSTITUTED 2-AMINOQUINAZOLINE INHIBITORS OF HPK1” (MERCK SHARP & DOHME LLC, priority 2020, published 2023).
